Reference: US12508300B2, “Acylated GLP-1 derivative” (Sciwind Biosciences Co., Ltd., priority 2019, dated 2025)
Read-outs that look alike come from different tables or passages of the source. *1 amine or outer side, *2 acyl side, *3 side chain or, on linkers, in order; H or OH if unused. Where a SMILES comes first, the peptide text is derived from it. Where no end group is shown, it is not given here. Side-chain parts run from the residue outwards. The star is where a group is joined. C18 diacid = O=C(O)CCCCCCCCCCCCCCCCC(=O)*; γGlu = O=C(O)[C@H](CCC(=O)[*:2])N[*:1]; AEEA = NCCOCCOCC(=O)O

Assays:
Type in all cases: in vivo
[1] = system: db/db mice; assay: Fasting blood glucose after single injection in type II diabetic db/db mice (FIG. 1); conditions: 0.05 mg/kg s.c. single, day 4 and day 5
Method: The dosage is 0.05 mg/kg for each, and the administration time is set as 0 h. Fasting blood glucose is measured after fasting for 6-8 h every day, and the fasting blood glucose after administration is measured every day until the fasting blood glucose value of each animal of the test group recovers to the value measured before administration. The blood glucose value measured before administration is called the basal blood glucose value, and is set as 0. Change of the fasting blood glucose (Δ: delta)=Blood glucose value after administration-Basal blood glucose value before administration.

[2] = system: db/db mice; assay: Glucose-lowing effect of different doses in type II diabetic db/db mice (fasting, random blood glucose, OGTT G-AUC); conditions: for Average changes of the blood glucose area under the curve after administration: OGTT
Method: The administration time is set as 0 h, and the fasting blood glucose and OGTT (oral glucose tolerance assay) are determined after fasting for 7-8 h every day, then 10% glucose is intragastrically administered at 1 g/kg body weight, and then blood is collected from the tip of the tail to measure the blood glucose in real time at 0, 0.5, 1, and 2 h after glucose load. After administration, the blood glucose is measured every day before fasting as random blood glucose, until the fasting blood glucose value of each animal of the test group recovers to the value before administration. All of the basal blood glucose value, random blood glucose value, and the blood glucose area under the curve (G-AUC) value determined before administration are bases for evaluating the efficacy of the medicament, and they are set as 0.
Change of the blood glucose (Δ: delta)=Blood glucose value after administration-Basal blood glucose value before administration.
Change of the blood glucose area under the curve (Δ: delta)=blood glucose area under the curve after administration-blood glucose area under the curve before administration.

[3] = system: CD-1 mice; conditions: 0.15 mg/kg s.c.
Method: Twenty-eight healthy female CD-1 mice aged 4-6 weeks are selected and divided into 4 groups, and they are injected subcutaneously with M4, M5, M7 and M0 at a dose of 0.15 mg/kg body weight.

[4] = system: ICR mice; design: G-AUC: unit not given here
Method: 20% glucose is intragastrically administered every day according to the time schedule of 4 h, 1 d, 2 d, 3 d, 4 d, and 5 d, at a dose of 2 g/kg body weight, and fasting for 6 hours before administering the glucose; and blood is respectively collected from the tip of the tail at 0 h, 0.5 h, 1 h and 2 h after giving the 20% glucose, then measuring the blood glucose value in real time by using Roche blood glucose test paper.

For `CC[C@H](C)[C@H](NC(=O)[C@H](Cc1ccccc1)NC(=O)[C@H](CCC(=O)O)NC(=O)[C@H](CCCNC(=N)N)NC(=O)[C@H](C)NC(=O)[C@H](C)NC(=O)[C@H](CCC(N)=O)NC(=O)[C@H](CCC(=O)O)NC(=O)[C@H](CCC(=O)O)NC(=O)[C@H](CC(C)C)NC(=O)[C@H](Cc1ccc(O)cc1)NC(=O)[C@H](CO)NC(=O)[C@H](CO)NC(=O)[C@@H](NC(=O)[C@H](CC(=O)O)NC(=O)[C@H](CO)NC(=O)[C@@H](NC(=O)[C@H](Cc1ccccc1)NC(=O)[C@@H](NC(=O)CNC(=O)[C@H](CCC(=O)O)NC(=O)[C@@H](NC(=O)[C@@H](N)Cc1c[nH]cn1)[C@@H](C)O)[C@@H](C)O)[C@@H](C)O)C(C)C)C(=O)N[C@@H](CCCCNC(=O)COCCOCCNC(=O)COCCOCCNC(=O)CC[C@H](NC(=O)CCCCCCCCCCCCCCCCC(=O)O)C(=O)O)C(=O)N[C@@H](Cc1c[nH]c2ccccc12)C(=O)N[C@@H](CC(C)C)C(=O)N[C@H](C(=O)N[C@@H](CCCNC(=N)N)C(=O)NCC(=O)N[C@@H](CCCNC(=N)N)C(=O)NCC(=O)O)C(C)C` [M13] (H-HTEGTFTSDVSSYLEEQAAREFIK([AEEA-AEEA-γGlu-C18 diacid])WLVRGRG-OH; N-terminus and C-terminus assumed), the “glucose-lowing effect compared with Semaglutide (FIG. 1)” value [1] was “better than that of Semaglutide”.

“N-ε^26-[2-(2-[2-(2-[2-(2[4-(17-carboxyheptadecanoylamino)-4(s)-carboxybutyrylamino]ethoxy)ethoxy]acetylamino)ethoxy]ethoxy)acetyl]Val^8Glu^22Lys^26Arg^34-GLP-1(7-37) peptide (HVEGTFTSDVSSYLEEQAAK([AEEA-AEEA-γGlu-C18 diacid])EFIAWLVRGRG) [M0, Lys at position 26, disclosed in CN107033234A]” was tested, and the “time after administration at which G-AUC returns to the base before administration” value ([2]; 0.015 mg/kg dosage group) was 27 h, the “time after administration at which fasting blood glucose returns to the basal blood glucose base” value ([2]; 0.015 mg/kg dosage group) was 51 h and the “time after administration at which random blood glucose returns to the base before administration” value ([2]; 0.015 mg/kg dosage group) was 67 h. For the same compound, the “Average changes of fasting blood glucose after administration” value (from here on “Average changes of fasting blood glucose”) ([2]; 0.015 mg/kg s.c., 3 h) was -3.5 mM, the “Average changes of random blood glucose after administration” value (“Average changes of random blood glucose” for short) ([2]; 0.015 mg/kg s.c., 6 h) was -15.7 mM and the “Average changes of random blood glucose” value ([2]; 0.015 mg/kg s.c., 19 h) was -13.5 mM. For the same compound, the “Average changes of fasting blood glucose” value ([2]; 0.015 mg/kg s.c., 27 h) was -2.7 mM, the “Average changes of random blood glucose” value ([2]; 0.015 mg/kg s.c., 43 h) was -10.1 mM and the “Average changes of fasting blood glucose” value ([2]; 0.015 mg/kg s.c., 51 h) was -2.4 mM. For the same compound, the “Average changes of random blood glucose” value ([2]; 0.015 mg/kg s.c., 67 h) was -3.1 mM, the “Average changes of fasting blood glucose” value ([2]; 0.015 mg/kg s.c., 75 h) was 2.5 mM and the “Average changes of random blood glucose” value ([2]; 0.015 mg/kg s.c., 91 h) was -0.1 mM. For the same compound, the “Average changes of fasting blood glucose” value ([2]; 0.015 mg/kg s.c., 99 h) was 3.9 mM, the “Average changes of random blood glucose” value ([2]; 0.015 mg/kg s.c., 115 h) was 4.9 mM and the “Average changes of fasting blood glucose” value ([2]; 0.015 mg/kg s.c., 123 h) was 3.7 mM. The “Average changes of random blood glucose” value ([2]; 0.015 mg/kg s.c., 139 h) was 5.9 mM, the “Average changes of fasting blood glucose” value ([2]; 0.015 mg/kg s.c., 147 h) was 9.8 mM and the “time after administration at which G-AUC returns to the base before administration” value ([2]; 0.15 mg/kg dosage group) was 51 h. The “time after administration at which fasting blood glucose returns to the basal blood glucose base” value ([2]; 0.15 mg/kg dosage group) was 75 h, the “time after administration at which random blood glucose returns to the base before administration” value ([2]; 0.15 mg/kg dosage group) was 67 h and the “Average changes of fasting blood glucose” value ([2]; 0.15 mg/kg s.c., 3 h) was -4.1 mM. The “Average changes of random blood glucose” value ([2]; 0.15 mg/kg s.c., 6 h) was -15.7 mM, the “Average changes of random blood glucose” value ([2]; 0.15 mg/kg s.c., 19 h) was -14.8 mM and the “Average changes of fasting blood glucose” value ([2]; 0.15 mg/kg s.c., 27 h) was -3.0 mM. The “Average changes of random blood glucose” value ([2]; 0.15 mg/kg s.c., 43 h) was -14.1 mM, the “Average changes of fasting blood glucose” value ([2]; 0.15 mg/kg s.c., 51 h) was -3.2 mM and the “Average changes of random blood glucose” value ([2]; 0.15 mg/kg s.c., 67 h) was -7.1 mM. The “Average changes of fasting blood glucose” value ([2]; 0.15 mg/kg s.c., 75 h) was -0.7 mM, the “Average changes of random blood glucose” value ([2]; 0.15 mg/kg s.c., 91 h) was 1.7 mM and the “Average changes of fasting blood glucose” value ([2]; 0.15 mg/kg s.c., 99 h) was 1.4 mM. For the same compound, the “Average changes of random blood glucose” value ([2]; 0.15 mg/kg s.c., 115 h) was 4.5 mM, the “Average changes of fasting blood glucose” value ([2]; 0.15 mg/kg s.c., 123 h) was 4.4 mM and the “Average changes of random blood glucose” value ([2]; 0.15 mg/kg s.c., 139 h) was 7.8 mM. For the same compound, the “Average changes of fasting blood glucose” value ([2]; 0.15 mg/kg s.c., 147 h) was 6.7 mM, the “Average changes of the blood glucose area under the curve after administration” value ([2]; 0.015 mg/kg s.c., 3 h) was -9.0 mmol/L/h and the “Average changes of the blood glucose area under the curve after administration” value ([2]; 0.015 mg/kg s.c., 27 h) was -5.2 mmol/L/h. For the same compound, the “Average changes of the blood glucose area under the curve after administration” value ([2]; 0.015 mg/kg s.c., 51 h) was 1.1 mmol/L/h, the “Average changes of the blood glucose area under the curve after administration” value ([2]; 0.015 mg/kg s.c., 75 h) was 8.2 mmol/L/h and the “Average changes of the blood glucose area under the curve after administration” value ([2]; 0.015 mg/kg s.c., 99 h) was 7.9 mmol/L/h. The “Average changes of the blood glucose area under the curve after administration” value ([2]; 0.015 mg/kg s.c., 123 h) was 13.0 mmol/L/h, the “Average changes of the blood glucose area under the curve after administration” value ([2]; 0.015 mg/kg s.c., 147 h) was 21.9 mmol/L/h and the “Average changes of the blood glucose area under the curve after administration” value ([2]; 0.15 mg/kg s.c., 3 h) was -10.3 mmol/L/h. The “Average changes of the blood glucose area under the curve after administration” value ([2]; 0.15 mg/kg s.c., 27 h) was -10.2 mmol/L/h, the “Average changes of the blood glucose area under the curve after administration” value ([2]; 0.15 mg/kg s.c., 51 h) was -7.1 mmol/L/h and the “Average changes of the blood glucose area under the curve after administration” value ([2]; 0.15 mg/kg s.c., 75 h) was 1.5 mmol/L/h. For the same compound, the “Average changes of the blood glucose area under the curve after administration” value ([2]; 0.15 mg/kg s.c., 99 h) was 3.9 mmol/L/h, the “Average changes of the blood glucose area under the curve after administration” value ([2]; 0.15 mg/kg s.c., 123 h) was 9.9 mmol/L/h and the “Average changes of the blood glucose area under the curve after administration” value ([2]; 0.15 mg/kg s.c., 147 h) was 16.0 mmol/L/h. For the same compound, the “duration of glucose-lowing effect in normal mice” value ([3]; from Table 4) was “about 3 days”, the “Inhibition rate (blood glucose)” value ([3]; Table 4, CD-1 mice, 6 h) was 38.47% and the “Inhibition rate (blood glucose)” value ([3]; Table 4, CD-1 mice, 30 h) was 33.79%. The “Inhibition rate (blood glucose)” value ([3]; Table 4, CD-1 mice, 54 h) was 25.18%, the “Inhibition rate (blood glucose)” value ([3]; Table 4, CD-1 mice, 78 h) was 13.43% and the “Inhibition rate (blood glucose)” value ([3]; Table 4, CD-1 mice, 102 h) was −1.05%. For the same compound, the “Inhibition rate (blood glucose)” value ([3]; Table 5 (second experiment), CD-1 mice, 6 h) was 26.71%, the “Inhibition rate (blood glucose)” value ([3]; Table 5 (second experiment), CD-1 mice, 30 h) was 33.57% and the “Inhibition rate (blood glucose)” value ([3]; Table 5 (second experiment), CD-1 mice, 54 h) was 17.32%. The “Inhibition rate (blood glucose)” value ([3]; Table 5 (second experiment), CD-1 mice, 78 h) was 8.97%, the “Inhibition rate (blood glucose)” value ([3]; Table 5 (second experiment), CD-1 mice, 102 h) was −12.89% and the G-AUC ([4]; 0 h (before administration)) was 18.0 ± 1.9. The “time the glucose-lowing effect is maintained” value ([4]; 0.15 mg/kg s.c. single) was 3 days, the G-AUC ([4]; 0.15 mg/kg s.c. single, 4 h) was 11.1 ± 1.2 and the “Inhibition rate (blood glucose)” value ([4]; 0.15 mg/kg s.c. single, 4 h) was 38.47%. The G-AUC ([4]; 0.15 mg/kg s.c. single, 1 d) was 11.9 ± 0.7, the “Inhibition rate (blood glucose)” value ([4]; 0.15 mg/kg s.c. single, 1 d) was 33.79% and the G-AUC ([4]; 0.15 mg/kg s.c. single, 2 d) was 13.5 ± 1.1. For the same compound, the “Inhibition rate (blood glucose)” value ([4]; 0.15 mg/kg s.c. single, 2 d) was 25.18%, the G-AUC ([4]; 0.15 mg/kg s.c. single, 3 d) was 15.6 ± 1.3 and the “Inhibition rate (blood glucose)” value ([4]; 0.15 mg/kg s.c. single, 3 d) was 13.43%. The G-AUC ([4]; 0.15 mg/kg s.c. single, 4 d) was 18.2 ± 1.1 and the “Inhibition rate (blood glucose)” value ([4]; 0.15 mg/kg s.c. single, 4 d) was 0.60%.
